Test results: US7705028B2, “Farnesoid X receptor agonists” (GlaxoSmithKline LLC, priority 2005, dated 2010)
Counter-ions that a name gives are not always drawn. Like-named read-outs stand apart in the source and are kept apart here.

Experiments:
[1] = target: T1, human FXR ligand binding domain (LBD) (Homo sapiens, UniProt Q96RI1); assay: FXR Cofactor Binding Assay (TRF, SRC-1 peptide recruitment); assay type: biochemical; settings: read-out: Activity (pEC50) (converted)
T1 construct: polyhistidine (pRSET-A vector leader) (N); made in house; host or cells: E. coli BL21 (DE3), pRSET-A vector
T1 sequence (Q96RI1 237-472 isoform Q96RI1-2): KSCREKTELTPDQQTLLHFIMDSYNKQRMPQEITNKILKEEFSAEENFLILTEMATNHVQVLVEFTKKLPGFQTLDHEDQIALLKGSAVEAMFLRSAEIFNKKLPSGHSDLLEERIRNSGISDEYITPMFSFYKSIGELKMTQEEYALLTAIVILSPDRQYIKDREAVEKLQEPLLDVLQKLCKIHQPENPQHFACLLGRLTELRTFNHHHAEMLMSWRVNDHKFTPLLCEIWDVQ
T1 sequence (Q15788 676-700 partner): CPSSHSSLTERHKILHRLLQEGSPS
Excerpt: Determination of a ligand mediated cofactor peptide interaction to quantify ligand binding to the nuclear receptor Farnasoid X Receptor (FXR). The method measures the ability of putative ligands to modulate the interaction between the purified bacterial expressed human FXR ligand binding domain (LBD) and a synthetic biotinylated peptide based on residues 676-700 of steroid receptor coactivator-1 (SRC-1) (LXXLL-containing domain-2 where L is the amino acid leucine and X indicates any other amino acid (LCD2), 676-700). The sequence of the SRC-1 peptide used is as published in Iannone, M. A. et al, Cytometry 44:326-337 (2001) where the N-terminus was biotinylated (B) and the C-terminus was amidated. Detection of the associated complex was measured by time resolved fluorescence (TRF). The purified LBD of FXR was labeled with biotin then mixed with stoichiometric amounts of allophycocyanin (APC) labeled streptavidin (Molecular Probes). The biotinylated peptide was then mixed with a ½ stoichiometric amount of europium labeled streptavidin (Wallac Inc). Each was then blocked with a 5 fold excess of biotin and allowed to equilibrate for 15 min. Equimolar amounts of receptor and peptide were mixed together and were allowed to equilibrate for at least 30 min prior to the addition to either a variable or constant concentrations of the sample for which the affinity is to be determined. After equilibration, the time-resolved fluorescent signal was quantitated using a fluorescent plate reader. The affinity of the test compound was estimated from a plot of fluorescence versus concentration of test compound added.
A basal level of FXR: peptide formation is observed in the absence of added ligand. Ligands that promote the complex formation induce a concentration-dependent increase in time-resolved fluorescent signal. Compounds which bind equally well to both non-/un-complexed FXR and to the FXR: peptide complex would be expected to give no change in signal, whereas ligands which bind preferentially to the non-/un-complexed receptor would be expected to induce a concentration-dependent decrease in the observed signal.
Human FXR Ligand Binding Domain (FXR LBD) was expressed in E. coli strain BL21 (DE3) as an amino-terminal polyhistidine tagged fusion protein. Expression was under the control of an isopropyl-β-D-thiogalactopyranoside (IPTG) inducible T7 promoter. DNA encoding this recombinant protein is subcloned into the pRSET-A expression vector (Invitrogen). The coding sequence of Human FXR LBD was derived from Genbank accession number U 68233 (amino acids 237 to 472).
Ten-liter fermentation batches were grown in Rich PO4 media with 0.1 mg/mL Ampicillin at 25° C. for 12 hours, cooled to 9° C. and held at that temperature for 36 hours to a density of OD600=14. At this cell density, 0.25 mM IPTG is added and induction proceeded for 24 hours at 9° C., to a final OD600=16. Cells are harvested by centrifugation (20 minutes, 3500× gravity, 4° C.), and concentrated cell slurries were stored in phosphate buffered saline (PBS) at […].
Routinely, 30-40 g cell paste (equivalent to 2-3 liters of the fermentation batch) was resuspended in 200-250 mL Tris buffered saline (TBS), pH 7.2 (25 mM Tris-Hydroxymethylamino methane (Tris), 150 mM NaCl). Cells were lysed by passing 3 times through a French Press and cell debris was removed by centrifugation (30 minutes, 20,000× gravity, 4° C.). The cleared supernatant was filtered through course pre-filters, and TBS, pH 7.2, 500 mM imidazole was added to obtain a final imidazole concentration of 50 mM. This lysate was loaded onto a column (6×8 cm) packed with Sepharose [Ni^++ charged] Chelation resin (Pharmacia) and pre-equilibrated with TBS pH 7.2/50 mM imidazole. After washing to baseline absorbance with equilibration buffer, the column was washed with one column volume of TBS pH 7.2 containing 90 mM imidazole. FXR LBD was eluted directly with 365 mM imidazole. […]

[2] = system: rodent models of hepatic fibrosis; settings: multiple rodent models; cited from earlier work
[3] = system: hepatic stellate cells (HSC); settings: cultured HSCs; cited from earlier work
[4] = system: high-fat diet induced insulin resistant, glucose intolerant, and obese mouse model; assay: High-fat diet induced insulin resistant, glucose intolerant, obese mouse model; assay type: in vivo; settings: C57BL mice, 100 mg/kg twice a day orally
Excerpt: Compounds of formula (I) are also useful for the treatment of diabetes mellitus in a subject, such as a mammal, particularly a human. For example, the compounds of formula (I) are useful for the treatment of type 2 diabetes. The effects of an FXR agonist, GW4064, on body weight, glucose tolerance, serum glucose, serum insulin, serum triglyceride, and liver triglyceride contents via oral administration have been observed in an high-fat diet induced insulin resistant, glucose intolerant, and obese mouse model. Male 20 to 25 g C57BL mice (Charles River, Indianapolis, Ind.) were housed at 72° F. and 50% relative humidity with a 12 h light and dark cycle and fed with standard rodent chow (Purina 5001, Harlan Teklad, Indianapolis, Ind.) or a high-fat diet (TD93075, Harlan Teklad, Indianapolis, Ind.) for seven weeks. After two weeks, mice on high-fat diet were randomized to vehicle or treatment groups. There were no significant difference in body weight, body fat mass, serum glucose and insulin, and area under the curve (AUC) for glucose in glucose tolerance test (GTT) between the vehicle group and the treatment group. Starting from the fourth week, mice were given either vehicle or GW4064 (100 mg/kg) twice a day orally. Mice on the standard rodent chow were also given vehicle as a control. At the end of the third week of compound treatment, a GTT was performed and body composition was measured using the quantitative magnetic resonance (QMR) method. […] Blood glucose during GTT was measured using Bayer Glucometer Elite® XL. Serum chemistry levels were measured using the Instrumentation Laboratory Ilab600™ clinical chemistry analyzer (Instrumentation Laboratory, Boston, Mass.). Liver triglyceride contents were measured using the methanolic-KOH saponification method and a triglyceride assay kit (GPO-TRINDER, Sigma Diagnostics, St. Louis, Mo.). […] It is believed that the result may have been due to a decrease in fat mass.

[5] = system: bile duct-ligated mouse model of cholestasis and intestinal bacterial overgrowth; settings: cited from earlier work
[6] = system: mice on a lithogenic diet; settings: cited from earlier work
[7] = protocol †: 0.1 μL of test compound, final assay volume 10 μL
[8] = protocol ⋄: 0.5 μL of test compound, final assay volume 25 μL

Row | Compound | EC50 [1, 7] [nM] | EC50 [1, 8] [nM] | other results
1 | CC(C)c1onc(-c2c(Cl)cccc2Cl)c1COc1ccc(-c2ccc3c(C(=O)O)cccc3c2)cc1 [Example 1, 6-[4-({[3-(2,6-Dichlorophenyl)-5-(1-methylethyl)-4-isoxazolyl]methyl}oxy)phenyl]-1-naphthoic Acid Sodium Salt] | < 100 | < 100 | –
2 | CC(C)c1onc(-c2c(Cl)cccc2Cl)c1COc1ccc(-c2ccc3c(C(=O)O)cccc3c2)c(Cl)c1 [Example 2, 6-[2-Chloro-4-({[3-(2,6-dichlorophenyl)-5-(1-methylethyl)-4-isoxazolyl]methyl}oxy)phenyl]-1-naphthalenecarboxylic acid] | 102 to 1000 | – | –
3 | O=C(O)c1cccc2cc(-c3ccc(OCc4c(-c5c(Cl)cccc5Cl)noc4C4CCC4)cc3)ccc12 [Example 3, 6-[4-({[5-cyclobutyl-3-(2,6-dichlorophenyl)-4-isoxazolyl]methyl}oxy)phenyl]-1-naphthalenecarboxylic acid] | 102 to 1000 | – | –
4 | CC(C)c1onc(Cc2c(Cl)cccc2Cl)c1COc1ccc(-c2ccc3c(C(=O)O)cccc3c2)cc1 [Example 4, 6-[4-({[3-[(2,6-dichlorophenyl)methyl]-5-(1-methylethyl)-4-isoxazolyl]methyl}oxy)phenyl]-1-naphthalenecarboxylic acid] | – | 102 to 1000 | –
5 | CC(C)c1onc(CCc2c(Cl)cccc2Cl)c1COc1ccc(-c2ccc3c(C(=O)O)cccc3c2)cc1 [Example 5, 6-[4-({[3-[2-(2,6-dichlorophenyl)ethyl]-5-(1-methylethyl)-4-isoxazolyl]methyl}oxy)phenyl]-1-naphthalenecarboxylic acid] | 102 to 1000 | < 100 | –
6 | CC(C)c1onc(-c2c(Cl)cccc2Cl)c1COc1ccc(-c2ccc3cc(C(=O)O)ccc3c2)cc1 [Example 6, 6-(4-{[3-(2,6-dichlorophenyl)-5-isopropylisoxazol-4-yl]methoxy}phenyl)-2-naphthoic acid] | 102 to 1000 | – | –
7 | CC[C@H]1[C@@H](O)[C@@H]2[C@H](CC[C@]3(C)[C@@H]([C@H](C)CCC(=O)O)CC[C@@H]23)[C@@]2(C)CC[C@@H](O)C[C@@H]12 [Example 6EtCDCA, 6-ethyl-chenodeoxycholic acid] | – | – | hepatic fibrosis [2]: prevent development and promote resolution of hepatic fibrosis; expression of fibrotic markers such as α-smooth muscle actin and α1(I)collagen [3]: decreased expression of fibrotic markers
8 | CC(C)c1onc(-c2c(Cl)cccc2Cl)c1COc1ccc(-c2ccc3ccc(C(=O)O)cc3c2)cc1 [Example 8, 7-[4-({[3-(2,6-dichlorophenyl)-5-(1-methylethyl)-4-isoxazolyl]methyl}oxy)phenyl]-2-naphthalenecarboxylic acid] | 102 to 1000 | – | –
9 | CC(C)c1onc(CCc2c(Cl)cccc2Cl)c1COc1ccc(-c2ccc3ccc(C(=O)O)cc3c2)cc1 [Example 9, 7-[4-({[3-[2-(2,6-dichlorophenyl)ethyl]-5-(1-methylethyl)-4-isoxazolyl]methyl}oxy)phenyl]-2-naphthalenecarboxylic acid] | 102 to 1000 | – | –
10 | CC(C)c1onc(-c2c(Cl)cccc2Cl)c1COc1ccc(-c2ccc3cccc(C(=O)O)c3c2)cc1 [Example 10, 7-[4-({[3-(2,6-dichlorophenyl)-5-(1-methylethyl)-4-isoxazolyl]methyl}oxy)phenyl]-1-naphthalenecarboxylic acid] | 1020 to 10000 | – | –
11 | CC(C)c1onc(CCc2c(Cl)cccc2Cl)c1COc1ccc(-c2ccc3cccc(C(=O)O)c3c2)cc1 [Example 11, 7-[4-({[3-[2-(2,6-dichlorophenyl)ethyl]-5-(1-methylethyl)-4-isoxazolyl]methyl}oxy)phenyl]-1-naphthalenecarboxylic acid] | 1020 to 10000 | – | –
12 | CC(C)c1onc(-c2c(Cl)cccc2Cl)c1COc1ccc(/C=C/c2cccc(C(=O)O)c2)c(Cl)c1 [GW4064] | – | – | high-fat diet induced body weight gain [4]: reduced the high-fat diet induced body weight gain; glucose tolerance (GTT) ([4]; end of third week of treatment): appeared to improve glucose tolerance; liver triglyceride content ([4]; fourth week of treatment): reduced liver triglyceride content; serum glucose ([4]; fourth week of treatment): decreased; serum insulin ([4]; fourth week of treatment): decreased; serum triglyceride ([4]; fourth week of treatment): decreased; effect on translocation of bacteria in FXR null mice ([5]; FXR null mice): lost in FXR null mice; bacterial overgrowth ([5]; bile duct-ligated mice): decreased bacterial overgrowth; mucosal barrier ([5]; bile duct-ligated mice): improved mucosal barrier; translocation of bacteria to mesenteric lymph nodes ([5]; bile duct-ligated mice): decreased translocation of bacteria to mesenteric lymph nodes; effect on cholesterol crystal formation in FXR null mice ([6]; FXR null mice): lost in FXR null mice; formation of cholesterol crystals in the bile ([6]; mice on a lithogenic diet): prevented the formation of cholesterol crystals in the bile

The next lines start with results.

Row | EC50 [1, 7] [nM] | EC50 [1, 8] [nM] | Compound | other results
13 | – | 1020 to 10000 | CC(C)c1onc(-c2c(Cl)cccc2Cl)c1COc1ccc(-c2ccc3c(C(N)=O)cccc3c2)cc1 [Example 12a, 6-[4-({[3-(2,6-dichlorophenyl)-5-(1-methylethyl)-4-isoxazolyl]methyl}oxy)phenyl]-1-naphthalenecarboxamide] | –
14 | – | 1020 to 10000 | CC(C)c1onc(-c2c(Cl)cccc2Cl)c1COc1ccc(-c2ccc3c(C#N)cccc3c2)cc1 [Example 12b, 6-[4-({[3-(2,6-dichlorophenyl)-5-(1-methylethyl)-4-isoxazolyl]methyl}oxy)phenyl]-1-naphthalenecarbonitrile] | –
15 | – | 102 to 1000 | CC(C)c1onc(-c2c(Cl)cccc2Cl)c1COc1ccc(-c2ccc3c(-c4nn[nH]n4)cccc3c2)cc1 [Example 12c, 5-{6-[4-({[3-(2,6-dichlorophenyl)-5-(1-methylethyl)-4-isoxazolyl]methyl}oxy)phenyl]-1-naphthalenyl}-1H-tetrazole] | –
